Reference: article PMC3127977, “No relevant cardiac, pharmacokinetic or safety interactions between roflumilast and inhaled formoterol in healthy subjects: an open-label, randomised, actively controlled study” (BMC Clinical Pharmacology, 2011)
Like-named read-outs stand apart in the source and are kept apart here.

Assays:
[1] = cited from earlier work
[2] = Steady-state plasma pharmacokinetics (HPLC-MS/MS) in healthy men; oral roflumilast 500 μg once daily, inhaled formoterol 24 μg twice daily; settings: in vivo
Experimental: For Regimen A, subjects received 500 μg oral roflumilast once daily (daily dose: one tablet of roflumilast 500 μg) from the morning of Day 2 to the morning of Day 18. […] For Regimen B, subjects received 24 μg formoterol for oral inhalation delivered by a DPI device (Foradil® P) twice daily, once in the morning and once in the evening from the morning of Day 2 to the evening of Day 18.
Pre-dose blood samples for determination of trough levels were taken on Days 9 and 10 for Regimen A (morning only), and on Days 6 and 7 (morning and evening) for Regimen B. Blood samples (4.5 mL) were collected in heparinised tubes and plasma was obtained by centrifugation at 1550 g for 15 minutes. Plasma samples were stored at -20°C or below for roflumilast, and at -70°C for formoterol. Plasma concentrations of roflumilast and roflumilast N-oxide were determined using high-performance liquid chromatography coupled with tandem mass spectrometry (HPLC-MS/MS). […] Roflumilast and roflumilast N-oxide standard curves were valid up to 20 ng/mL and 40 ng/mL, respectively. Determination of roflumilast and roflumilast N-oxide was performed at Altana Pharma AG, Konstanz, Germany (Nycomed GmbH). Plasma concentrations of formoterol were determined using HPLC-MS/MS. The LLOQ in plasma was 0.4 pg/mL using a sample volume of 1.0 mL. […] Determination of formoterol was performed at pharm-analyt Labor GmbH, Baden, Austria, under the supervision of Altana Pharma AG(Nycomed GmbH).
For roflumilast, roflumilast N-oxide and formoterol, the maximum plasma concentration (Cmax) was derived directly from the plasma concentrations. The AUC from time zero to the time of the last quantifiable concentration, which corresponded to the dosing interval of each analyte (AUC0-τ), was estimated using the linear trapezoidal method. Apparent clearance at steady state (CL/F; calculated by dose/AUCτ) was reported for roflumilast only. […] The calculation of tPDE4i was based on the equation described in Lahu et al..

[3] = cited from earlier work; remark: listed apart in the source
[4] = CYP3A4 inhibitors co-administered with roflumilast

O=C(Nc1c(Cl)c[n+]([O-])cc1Cl)c1ccc(OC(F)F)c(OCC2CC2)c1 [Roflumilast N-oxide]
AUC greater than that of roflumilast [1]: 10 fold
median effective plasma half-life ([1]; repeated dose): 30 h
median time to maximum plasma concentration (tmax) ([1]; repeated dose): 8 h
changes in steady-state pharmacokinetics when the other drug was added [2]: no relevant changes

CC[C@H]1OC(=O)[C@H](C)[C@@H](O[C@H]2C[C@@](C)(OC)[C@@H](O)[C@H](C)O2)[C@H](C)[C@@H](O[C@@H]2O[C@H](C)C[C@H](N(C)C)[C@H]2O)[C@](C)(O)C[C@@H](C)C(=O)[C@H](C)[C@@H](O)[C@]1(C)O [erythromycin]
increase of tPDE4i [3, 4]: 8-9%

CCn1cc(C(=O)O)c(=O)c2cc(F)c(N3CCNCC3)nc21 [enoxacin]
increase of tPDE4i ([3]; CYP1A2 or dual CYP3A4/1A2 inhibitor co-administered with roflumilast): 25%

CC(=O)N1CCN(c2ccc(OCC3COC(Cn4ccnc4)(c4ccc(Cl)cc4Cl)O3)cc2)CC1 (centres unmarked) [ketoconazole]
increase of tPDE4i [3, 4]: 8-9%

CCCC1O[C@@H]2C[C@H]3[C@@H]4CCC5=CC(=O)C=C[C@]5(C)[C@H]4[C@@H](O)C[C@]3(C)[C@]2(C(=O)CO)O1 (some centres unmarked) [budesonide]
pharmacokinetic interaction on co-administration with roflumilast ([3]; healthy volunteers): no relevant pharmacokinetic interactions
